From patent publication US11214803B2, “Modulators of YAP1 expression” (Ionis Pharmaceuticals, Inc., priority 2019, dated 2022)
Strand notation (5' to 3'): a small letter for the sugar, then the base; units joined by * are phosphorothioate-linked, units joined directly phosphodiester-linked; [ ] holds rarer units or linkages, { } end groups; capitals alone tell only the bases. k = constrained ethyl (cEt); [5mC] = 5-methylcytosine; d = 2'-deoxy (DNA)

How the values were obtained:
[1] = system: Yap1 mRNA; assay: Dose-dependent inhibition of human Yap1 in A-431 cells (Example 8, 10,000 cells per well, RTS4814); type: cell-based; conditions: A-431 cells; for IC50: Yap1 mRNA
Method in brief: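 Yap1 mRNA, normalized to RIBOGREEN total RNA and expressed as % untreated control, was read with RTS4814 about 48 h after free-uptake oligonucleotide treatment of A-431 cells at 10,000 cells/well. IC50 derived by linear regression of log/linear data.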

[2] = system: Yap1 mRNA; assay: Antisense inhibition of human Yap1 in A-431 cells by cEt gapmers, single dose (Example 4, RTS4814); type: cell-based
Method in brief: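 Values are % UTC: Yap1 mRNA by quantitative RT-PCR, normalized to RIBOGREEN total RNA. Cells were exposed ~48 h to 2,000 nM oligonucleotide without transfection. Oligonucleotides were 16-nucleoside gapmers with three cEt nucleosides per wing, ten-deoxy gap, P=S linkages throughout.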

[3] = Yap1 mRNA remaining as percent of untreated control, 3-10-3 cEt gapmers, A-431 cells, Table 37
[4] = Yap1 mRNA remaining as percent of untreated control, 3-10-3 cEt gapmers, A-431 cells, Table 36
[5] = Table 16, A-431 cells, 5,000 cells per well, free uptake, 2,000 nM, approximately 48 hours, RTS4814, normalized to RIBOGREEN, Yap1 mRNA relative to untreated control cells
[6] = Table 15, A-431 cells, 5,000 cells per well, free uptake, 2,000 nM, approximately 48 hours, RTS4814, normalized to RIBOGREEN, Yap1 mRNA relative to untreated control, * = targets amplicon region of primer probe set
[7] = Table 17, A-431 cells, 5,000 cells per well, free uptake, 2,000 nM, approximately 48 hours, RTS4814, normalized to RIBOGREEN, Yap1 mRNA relative to untreated control cells
[8] = Table 14, A-431 cells, 5,000 cells per well, free uptake, 2,000 nM, approximately 48 hours, RTS4814, normalized to RIBOGREEN, Yap1 mRNA relative to untreated control, * = targets amplicon region of primer probe set

1076471 (k[5mC]*kA*kT*dT*dA*dG*dA*d[5mC]*dT*dA*dG*dG*d[5mC]*kT*kT*kT; antisense) [compound 1076471]
% UTC (Yap1 mRNA) ([1]; 31.3 nM): 64 % UTC | % UTC (Yap1 mRNA) ([1]; 125.0 nM): 29 % UTC | % UTC (Yap1 mRNA) ([1]; 500.0 nM): 9 % UTC | % UTC (Yap1 mRNA) ([1]; 2000.00 nM): 5 % UTC | IC50 [1]: 50 nM | YAP1 (% UTC) [2, 3]: 5 % UTC

1074678 (antisense kT*kA*kA*dT*d[5mC]*dT*dG*dT*dG*dG*d[5mC]*dT*dA*k[5mC]*kT*kG) [compound 1074678]
% UTC (Yap1 mRNA) ([1]; 31.3 nM): 73 % UTC | % UTC (Yap1 mRNA) ([1]; 125.0 nM): 37 % UTC | % UTC (Yap1 mRNA) ([1]; 500.0 nM): 16 % UTC | % UTC (Yap1 mRNA) ([1]; 2000.00 nM): 10 % UTC | IC50 [1]: 100 nM | YAP1 (% UTC) [2, 4]: 7 % UTC

1076439 (k[5mC]*kT*kT*dA*dT*dA*dT*dG*dG*dT*dT*dT*dT*kG*kT*kG) [compound 1076439]
% UTC (Yap1 mRNA) ([1]; 31.3 nM): 48 % UTC | % UTC (Yap1 mRNA) ([1]; 125.0 nM): 13 % UTC | % UTC (Yap1 mRNA) ([1]; 500.0 nM): 6 % UTC | % UTC (Yap1 mRNA) ([1]; 2000.00 nM): 5 % UTC | IC50 [1]: < 20 nM | YAP1 (% UTC) [2, 3]: 4 % UTC

1076023 (kA*kT*kA*dA*dT*dT*dA*dG*dA*dT*dG*d[5mC]*dT*kG*kA*k[5mC]; antisense) [compound 1076023]
% UTC (Yap1 mRNA) ([1]; 31.3 nM): 60 % UTC | % UTC (Yap1 mRNA) ([1]; 125.0 nM): 18 % UTC | % UTC (Yap1 mRNA) ([1]; 500.0 nM): 5 % UTC | % UTC (Yap1 mRNA) ([1]; 2000.00 nM): 3 % UTC | IC50 [1]: < 20 nM | YAP1 (% UTC) [2, 3]: 4 % UTC

1076534 (kA*k[5mC]*kT*dA*dT*dA*dA*dA*dG*d[5mC]*dA*dA*dT*kG*k[5mC]*kG; antisense) [compound 1076534]
% UTC (Yap1 mRNA) ([1]; 31.3 nM): 88 % UTC | % UTC (Yap1 mRNA) ([1]; 125.0 nM): 48 % UTC | % UTC (Yap1 mRNA) ([1]; 500.0 nM): 20 % UTC | % UTC (Yap1 mRNA) ([1]; 2000.00 nM): 10 % UTC | IC50 [1]: 200 nM | YAP1 (% UTC) [2, 4]: 4 % UTC

1074998 (antisense k[5mC]*kA*k[5mC]*dG*d[5mC]*dG*dA*d[5mC]*d[5mC]*dT*dA*d[5mC]*dT*kA*kA*kG) [compound 1074998]
YAP1 (% UTC) [2, 4]: 61 % UTC

1075714 (kA*kA*kT*dT*dA*d[5mC]*dA*dA*dT*d[5mC]*dA*dA*d[5mC]*k[5mC]*kT*kT; antisense) [Compound 1075714]
YAP1 (% UTC) [2, 5]: 42 % UTC

1075927 (antisense kG*k[5mC]*kT*dT*dA*dA*dA*dA*dT*d[5mC]*dA*dT*dG*kT*kA*kG) [compound 1075927]
YAP1 (% UTC) [2, 3]: 32 % UTC

1076033 (k[5mC]*kA*kT*dT*dA*dG*dT*dA*dG*dG*dT*dA*dT*kT*kT*k[5mC]; antisense) [Compound 1076033]
YAP1 (% UTC) [2, 6]: 8 % UTC

1075959 (kG*kA*kT*dT*dA*dT*dT*dA*dT*dT*dG*d[5mC]*dA*kG*k[5mC]*kT; antisense) [compound 1075959]
YAP1 (% UTC) [2, 3]: 15 % UTC

1074563 (antisense kT*kG*kA*dA*dT*dT*d[5mC]*d[5mC]*dA*dA*dT*d[5mC]*dG*kA*kG*kA) [Compound 1074563]
YAP1 (% UTC) [2, 7]: 4 % UTC

1076407 (antisense kG*kT*kA*dT*dT*dA*dT*dT*dT*dA*dA*dG*dA*k[5mC]*k[5mC]*kT) [compound 1076407]
YAP1 (% UTC) [2, 3]: 22 % UTC

1075392 (kG*kA*k[5mC]*dG*dG*dG*dT*dG*dA*dA*d[5mC]*d[5mC]*dT*kG*kT*kT; antisense) [Compound 1075392]
YAP1 (% UTC) [2, 8]: 95 % UTC

1075168 (antisense k[5mC]*kA*kT*d[5mC]*dA*dA*dA*dA*dT*dT*dT*d[5mC]*dA*k[5mC]*kG*kA) [Compound 1075168]
YAP1 (% UTC) [2, 8]: 49 % UTC

1075331 (kG*kA*kT*dA*dA*dA*d[5mC]*dA*d[5mC]*dT*dG*d[5mC]*dA*kG*kA*kG; antisense) [Compound 1075331]
YAP1 (% UTC) [2, 7]: 33 % UTC

1074806 (kT*kT*kG*dT*dA*dG*d[5mC]*dA*dA*dA*dG*dT*d[5mC]*kA*k[5mC]*kT; antisense) [compound 1074806]
YAP1 (% UTC) [2, 4]: 8 % UTC

1075875 (kA*k[5mC]*kT*dT*dA*dA*d[5mC]*dA*dA*d[5mC]*d[5mC]*d[5mC]*dT*kA*k[5mC]*kG; antisense) [Compound 1075875]
YAP1 (% UTC) [2, 7]: 72 % UTC

1075778 (k[5mC]*kA*kT*dT*dT*dA*dT*dA*d[5mC]*d[5mC]*dA*dG*dG*k[5mC]*kA*k[5mC]; antisense) [Compound 1075778]
YAP1 (% UTC) [2, 5]: 3 % UTC

1075095 (k[5mC]*kT*kT*dG*dA*dA*dA*dA*d[5mC]*dA*dA*dG*d[5mC]*k[5mC]*kA*k[5mC]; antisense) [compound 1075095]
YAP1 (% UTC) [2, 3]: 63 % UTC

1076224 (kT*kA*kT*dA*dA*dA*d[5mC]*d[5mC]*dT*dT*dG*d[5mC]*dT*kA*k[5mC]*kA; antisense) [Compound 1076224]
YAP1 (% UTC) [2, 8]: 67 % UTC

1074199 (antisense kG*k[5mC]*k[5mC]*dG*dG*dT*dT*dG*d[5mC]*d[5mC]*d[5mC]*dG*dG*kG*kT*k[5mC]) [compound 1074199]
YAP1 (% UTC) [2, 3]: 101 % UTC

1076544 (antisense kG*kA*k[5mC]*d[5mC]*dA*dA*d[5mC]*d[5mC]*dT*d[5mC]*d[5mC]*d[5mC]*d[5mC]*kT*kT*kG) [Compound 1076544]
YAP1 (% UTC) [2, 8]: 89 % UTC

1074691 (antisense k[5mC]*k[5mC]*k[5mC]*dT*d[5mC]*d[5mC]*d[5mC]*d[5mC]*d[5mC]*dT*dA*dA*dG*k[5mC]*kT*kA) [Compound 1074691]
YAP1 (% UTC) [2, 7]: 76 % UTC

1076161 (kT*k[5mC]*kT*dT*dA*dT*dA*d[5mC]*dT*dA*dG*dT*dA*k[5mC]*kG*kG; antisense) [Compound 1076161]
YAP1 (% UTC) [2, 6]: 14 % UTC

1074518 (kA*kA*kA*dT*dG*d[5mC]*dA*dT*dA*d[5mC]*dA*dA*dA*kG*k[5mC]*kG; antisense) [compound 1074518]
YAP1 (% UTC) [2, 4]: 13 % UTC

1075939 (k[5mC]*kT*kT*dG*dA*dA*dT*dA*dT*dA*dT*dG*dG*kG*kT*kT; antisense) [Compound 1075939]
YAP1 (% UTC) [2, 7]: 6 % UTC

1074167 (antisense k[5mC]*kG*k[5mC]*dA*d[5mC]*d[5mC]*d[5mC]*d[5mC]*d[5mC]*dT*dG*dA*d[5mC]*k[5mC]*k[5mC]*kA) [compound 1074167]
YAP1 (% UTC) [2, 3]: 58 % UTC

1074711 (antisense kA*k[5mC]*kT*d[5mC]*dT*dA*dG*dA*dA*d[5mC]*dA*dG*d[5mC]*kT*kG*k[5mC]) [compound 1074711]
YAP1 (% UTC) [2, 3]: 28 % UTC

1076163 (kG*kA*kT*dA*dT*dA*dA*dG*dT*dT*dA*d[5mC]*d[5mC]*kA*kA*kT; antisense) [Compound 1076163]
YAP1 (% UTC) [2, 7]: 16 % UTC

1076482 (antisense k[5mC]*kT*kT*dT*dA*dG*dA*d[5mC]*dT*dA*dA*dG*dT*kA*kA*kG) [Compound 1076482]
YAP1 (% UTC) [2, 5]: 107 % UTC

1076034 (kA*kA*kT*dT*dA*dG*dA*dA*dA*d[5mC]*dT*dT*dG*kG*k[5mC]*k[5mC]; antisense) [Compound 1076034]
YAP1 (% UTC) [2, 5]: 74 % UTC

1074885 (kA*kG*kG*dG*d[5mC]*dT*dA*dA*d[5mC]*dT*d[5mC]*d[5mC]*dT*kG*k[5mC]*k[5mC]; antisense) [compound 1074885]
YAP1 (% UTC) ([2]; table after Table 37, headed TABLE 32 (gapmers targeting SEQ ID NO.: 3), A-431 cells, free uptake, 2,000 nM, approximately 48 hours, RTS4814): 115 % UTC

1075298 (kA*kT*k[5mC]*dT*d[5mC]*dG*dG*dA*dA*dA*dT*dT*dT*kA*kA*kA; antisense) [Compound 1075298]
YAP1 (% UTC) [2, 5]: 128 % UTC

1075008 (antisense kT*kA*kA*dT*d[5mC]*dG*dA*dA*d[5mC]*dA*dT*dT*dG*kT*kG*kT) [Compound 1075008]
YAP1 (% UTC) [2, 8]: 61 % UTC
